The target in one test is T1, FOXM1 (Homo sapiens, UniProt Q08050).
T1 construct: the FoxMIC gene (residues 222-360) was cloned in a pET-28 vector; made in house; host or cells: E. coli BL21 (DE3)
T1 sequence (Q08050 222-360): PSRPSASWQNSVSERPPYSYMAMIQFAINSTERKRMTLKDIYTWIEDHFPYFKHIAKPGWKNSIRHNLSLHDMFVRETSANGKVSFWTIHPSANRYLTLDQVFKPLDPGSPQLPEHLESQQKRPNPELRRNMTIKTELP
Briefly: Nanopore single-molecule measurement of the inhibition of FOXM1 binding to its DNA target sequence. The procedure:
The cis compartment (connected to the ground electrode and where samples were added) was filled with 5 mM MgCl2, 150 mM KCl, 10 mM HEPES pH 7.2 (to mimic physiological conditions) and the trans compartment with 5 mM MgCl2, 2 M KCl, 10 mM HEPES pH 7.2 (to increase the ionic current signal). 0.5 µL of previously heptamerized α-HL was added to the cis compartment and following the first insertion the chamber was manually perfused to remove excess of α-HL. Ionic currents through the αHL pore were measured using Ag/AgCl electrodes with agar bridges in 3 M KCl, and balanced before measurements. The electrodes were connected to an amplifier (Axopatch 200B, Molecular Devices), the signal was filtered at 5 kHz (lowpass Bessel filter) and acquired at 20 kHz with a digitizer (Digidata 1440A, Molecular Devices). All experiments were repeated in at least 3 different pores. Raw data was first analyzed with pClamp software (Molecular Devices) to obtain the current and dwell time of the ionic current levels, >90% of the signals longer than 10 ms were the characteristic signals described in the main text. The residual current of a level is defined as the ionic current of the level divided by the ionic current of the open pore. Data analysis was carried out with Igor Pro (Wavemetrics) and molecular representations were performed using Chimera (UCSF).^47 The confidence interval of the kinetic rates were estimated using: kupp = k⋅(1+z/√n) [formula] klow = k⋅(1−z/√n) [formula] Transcription factors are frequently considered as ideal targets for cancer therapy, yet finding molecules capable of specifically inhibiting their interactions with DNA is challenging. Motivated by the high sensitivity of our measurements, we aimed to explore the capabilities of the nanopore to detect small molecule activity. We choose the DNA binding domain of Forkhead box protein M1 (FOXM1), which is overexpressed in many cancers and for which a molecule that inhibits binding to its target sequence has been reported, FDI-6^37 (Figure 3). When a DNA hairpin containing the binding sequence^38 and a 5' overhang is subjected to nanopore analysis we observe the characteristic ionic current signal reflecting the threading, unzipping and translocation of the DNA (Figure 3a). […] In agreement with previous reports,^29 we attribute the differences in unzipping kinetics to the differences in the first base pair to be unzipped. The RepE oligonucleotide begins with G-C while that of FOXM1 begins with A-T. Following the addition of FOXM1 protein, events showing an additional step are detected (Figure 3b), which correspond to the threading of protein-bound DNA molecules, detachment of the protein, unzipping and translocation of the DNA through the pore. […]

The next test has as its target T2, RepE-DNA (Escherichia coli, UniProt P03856).
T2 construct: purified from an intein vector pTXB1 containing the ORF fused with intein at the C terminus; made in house; host or cells: E. coli BL21 (DE3)
Briefly: Multiplexed nanopore single-molecule measurement, RepE-DNA pair (Reporter 1). The format is binding. The following applies: 0.87 µM RepE, 0.047 µM DNA, increasing amounts of FDI-6, n = 4.

The next test deals with T3, FOXM1-DNA (Homo sapiens, UniProt Q08050).
T3 construct: the FoxMIC gene (residues 222-360) was cloned in a pET-28 vector; made in house; host or cells: E. coli BL21 (DE3)
T3 sequence (Q08050 222-360): T1 sequence (Q08050 222-360)
Briefly: Multiplexed nanopore single-molecule measurement, FOXM1-DNA pair (Reporter 2). The format is binding. The following applies: increasing amounts of FDI-6.

The test system of another test is DNA-hairpin reporter. Briefly: Nanopore detection of a non-specific DNA interacting compound. The format is binding.

Molecules are shown by their SMILES. “Also recorded” adds a separate entry of the source.

The Kd is the free concentration of one partner at which half of the binding sites on the other are occupied at equilibrium, for simple one-to-one binding. A higher Kd goes with weaker binding. One may read the koff as the first-order rate constant of dissociation. `Nc1c(C(=O)Nc2ccc(F)cc2)sc2nc(-c3cccs3)cc(C(F)(F)F)c12` [FDI-6]: the “mechanism of action deduced from kinetics of DNA unzipping and protein detachment” value at FOXM1 is “binds the protein (not the DNA), and that binding is competitive”. For the same compound, the Kd at FOXM1 (affinity of the inhibitor for the protein, model: one site, reversible, binding completely prevents protein-DNA interaction, mean ± SD, n=7) was 139 ± 73 µM. Further, on FOXM1 (protein detachment from DNA in the presence of FDI-6, +90 mV, 95 % CI, n = 3, compound absent 57 [96 - 18], read-out: koff,90mV,FD16), the koff was found to be 49 s⁻¹. The “fraction of events with a protein bound to DNA” value at FOXM1 (sequential additions of FDI-6 to FOXM1-DNA solution) is “decreases”. Moreover, the “effect on the interaction between RepE and its target sequence” value at RepE-DNA is “had no effect; also recorded: in none of our measurements was the RepE-DNA pair affected”. For the same compound, the “fraction of events assigned to Reporter 2 with bound protein” value on FOXM1-DNA is on record as “decreased”.
As for `COc1cccc2c1C(=O)c1c(O)c3c(c(O)c1C2=O)C[C@@](O)(C(=O)CO)C[C@@H]3O[C@H]1C[C@H](N)[C@H](O)[C@H](C)O1` [doxorubicin], in the test with DNA-hairpin reporter (2.5 mM doxorubicin added to a solution of RepE and its DNA-hairpin reporter), the ionic current traces result is “no characteristic signal for DNA unzipping and translocation was detected”. Also, the ionic current signal result in the test with DNA-hairpin reporter (interaction of doxorubicin with the DNA) is “radically changed the ionic current signal, giving noisy long-lived events”.
